For one compound, MIC, antifungal activity and IC50 results are on record in PMC6268379, “Antifungal Activity of Homoaconitate and Homoisocitrate Analogs” (Molecules, 2012).

Assay [1] relates to Saccharomyces cerevisiae ATCC 9763. The experiment in a line: Antifungal in vitro activity, microplate serial dilution (modified CLSI M27-A3). The conditions noted are these: ATCC9763, 24 h, pH 7, read-out: MIC S. cerevisiae. It counts as cell-based.
Assay [2] relates to Candida glabrata DSM 11226. The assay is described as above. It counts as cell-based. As to conditions: Nakaseomyces glabratus, DSM11226, 24 h, pH 7, read-out: MIC C. glabrata.
Assay [3] deals with Candida lusitaniae DSM 70102. The assay is described as above. It counts as cell-based. As to conditions: Clavispora lusitaniae, DSM70102, 24 h, pH 7, read-out: MIC C. lusitaniae.
The subject of assay [4] is Candida albicans ATCC 10231. The assay is described as above. The conditions noted are these: ATCC10231, 24 h, pH 7, read-out: MIC C. albicans. It counts as cell-based.
The subject of a further assay is six yeast strains. The assay is described as follows: In vitro antifungal activity against six yeast strains. It counts as cell-based. The conditions noted are these: salts, six yeast strains, stated in words.
In assay [5] the target is recombinant homoisocitrate dehydrogenase (HIcDH) (Candida albicans, UniProt Q5A9D9). The assay is described as follows: Homoisocitrate dehydrogenase activity, NADH absorption at 340 nm. Type of assay: biochemical. As to conditions: recombinant C. albicans His-tagged HIcDH, inhibitor 0–10 mM, mean of three determinations ± SD. How it is done: (§1) Recombinant C. albicans homoaconitase (HA) and homoisocitrate dehydrogenase (HIcDH) containing oligoHis N-terminal tags were constructed and purified to near homogeneity as described earlier.
Reaction catalyzed by homoisocitrate dehydrogenase (HIcDH) was monitored by measuring the NADH absorption at 340 nm. The standard assay mixture contained 10 mM KCl, 5.0 mM MgCl2, 5 mM NAD^+ and 0.1 mM (2R,3S)-homoisocitrate in 50 mM Hepes-NaOH (pH 7.8) buffer. The reaction mixture with all required components except for the enzyme was preincubated for 3 min and the reaction was started by an addition of the recombinant His6-HIcDH (50 μg). The formation of NADH was measured for 30 s at 20 °C to determine initial reaction velocity. The initial rates were determined using a linear portion of the reaction progress curve.
(§2) The effects of novel compounds on the HA and HIcDH activity was determined by measuring the enzyme activity in standard assay mixtures containing various concentration of an inhibitor (0–10 mM). Inhibitory potential was expressed as IC50 values, i.e., concentrations causing 50% inhibition of enzyme activity in relation to control. All determinations were performed in triplicate.

The target in assay [6] is T1, recombinant homoaconitase (HA) (Candida albicans, UniProt Q5A644).
T1 construct: made in house
T1 sequence (Q5A644 1-684): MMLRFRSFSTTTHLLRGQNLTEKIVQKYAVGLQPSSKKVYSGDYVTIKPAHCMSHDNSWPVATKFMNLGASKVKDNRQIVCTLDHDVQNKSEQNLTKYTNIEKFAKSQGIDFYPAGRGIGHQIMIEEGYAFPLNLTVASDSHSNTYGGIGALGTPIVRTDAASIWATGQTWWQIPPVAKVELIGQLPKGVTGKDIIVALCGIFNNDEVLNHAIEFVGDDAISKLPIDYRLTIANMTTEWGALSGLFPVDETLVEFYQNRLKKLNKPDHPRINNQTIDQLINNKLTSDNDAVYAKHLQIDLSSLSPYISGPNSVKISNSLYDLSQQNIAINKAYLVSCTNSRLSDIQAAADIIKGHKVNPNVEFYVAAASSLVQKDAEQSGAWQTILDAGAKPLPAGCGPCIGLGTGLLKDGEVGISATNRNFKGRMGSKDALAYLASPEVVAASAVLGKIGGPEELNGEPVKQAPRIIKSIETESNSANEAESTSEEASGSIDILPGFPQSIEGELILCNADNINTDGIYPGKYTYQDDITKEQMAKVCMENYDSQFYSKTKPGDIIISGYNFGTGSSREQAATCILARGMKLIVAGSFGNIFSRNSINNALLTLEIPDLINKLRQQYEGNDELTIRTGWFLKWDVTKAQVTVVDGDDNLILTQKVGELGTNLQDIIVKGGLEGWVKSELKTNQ
The assay is described as follows: Homoaconitase activity, coupled reaction with HIcDH, NADH at 340 nm. Type of assay: biochemical. Here is the method:
as §1
Activity of homoaconitase (HA) was measured by a coupled reaction with HIcDH by monitoring the reduction of NAD^+ to NADH at 340 nm. Reaction mixtures containing 50 mM Tris-HCl (pH 8.5), 50 mM KCl, 5 mM MgCl2, 20 mM dithiothreitol, 1 mM NAD^+ and 30 μg/mL of His6-HIcDH in a total volume of 0.9 mL were degassed under argon for 10 min, after which 0.05 mL of His6-HAC solution was added to a final concentration of 10 μg/mL. The reaction was initiated with addition of 0.05 mL of 50 mM (R)-homocitrate. The formation of NADH was measured for 30 s at 20 °C to determine initial reaction velocity. The initial rates were determined using a linear portion of the reaction progress curve.
as §2

For the next assay, the system named is Candida krusei DSM 6128. The experiment in a line: Antifungal in vitro activity, microplate serial dilution (modified CLSI M27-A3). It counts as cell-based. As to conditions: Pichia kudriavzevii, DSM6128, 24 h, pH 7, read-out: MIC C. krusei.
The subject of assay [7] is Candida tropicalis KKP 334. The description is as above. It counts as cell-based. As to conditions: KKP334, 24 h, pH 7, read-out: MIC C. tropicalis.

recombinant homoisocitrate dehydrogenase (HIcDH), sequence (Q5A9D9 entry or part of it): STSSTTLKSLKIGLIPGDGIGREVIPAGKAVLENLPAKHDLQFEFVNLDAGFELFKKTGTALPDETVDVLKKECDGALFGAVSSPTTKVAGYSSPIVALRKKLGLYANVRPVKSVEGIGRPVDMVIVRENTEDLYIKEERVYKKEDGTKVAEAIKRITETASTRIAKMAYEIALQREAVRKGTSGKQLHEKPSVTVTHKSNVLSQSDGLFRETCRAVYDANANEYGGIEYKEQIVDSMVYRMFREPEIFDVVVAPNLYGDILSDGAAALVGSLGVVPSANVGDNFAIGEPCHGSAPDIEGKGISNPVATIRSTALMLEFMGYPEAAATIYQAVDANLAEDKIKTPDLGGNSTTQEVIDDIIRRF

For the compound `O=C([O-])/C=C(\CCC(=O)[O-])C(=O)[O-].[K+].[K+].[K+]` [Compound 2, tripotassium (1E)-but-1-ene-1,2,4-tricarboxylate], the MIC (in assay [1]; in [2]; in assay [3]; in [4]; with Candida krusei DSM 6128; in assay [7]) was above 512 µg/mL in each case. The antifungal activity entry in the assay on six yeast strains is on record as “None”. Further, the IC50 (commonly the concentration needed to halve the response being measured) is above 10000 µM in assay [5] and 1580 ± 110 µM in assay [6].
